# Results published in PubChem BioAssay AID1918947 (Molecular Pharmacology Branch, DTP, NCI, 2023).
# Several values for one entry are separate records, joined by “and”; a condition that tells them apart may be missing. Equal entries are not always repeated.
# Tested on: A498 complex spheroid viability
# Assay: Anticancer human tumor A498 cell line growth inhibition;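 note: spheroids exposed to agents for seven days before readout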;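 for viability, T/C: 100% = DMSO vehicle-treated spheroids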
# Details: for viability, T/C: stronger effect = lower value
# Method in brief: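 Drug combinations with the LSD1 inhibitor iadademstat tested on tumor cells co-cultured as spheroids with endothelial cells and mesenchymal stem cells. Concentrations descended in half-log increments from clinical Cmax or 10 microM.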
# [1] = curve of first compound, second compound 0.1 µM
# [2] = curve of first compound, second compound 0.316 µM
# [3] = curve of first compound, second compound 1 µM
# [4] = curve of first compound, second compound 3.16 µM
# [5] = curve of first compound, second compound 10 µM
smiles,measurement,setting,value
COc1cc(C2c3cc4c(cc3C(OC3OC5COC(C)OC5C(O)C3O)C3COC(=O)C23)OCO4)cc(OC)c1O (configuration not stated) + NC1CCC(NC2CC2c2ccccc2)CC1,IC50,[1],> 3000 nM
same,IC50,[2],> 3000 nM
same,IC50,[3],> 3000 nM
same,IC50,[4],2330 nM
same,IC50,[5],1420 nM
same,"viability, T/C","second compound 0.1 µM, first compound 0.00949 µM",81.8%
same,"viability, T/C","second compound 0.1 µM, first compound 0.03 µM",67.1%
same,"viability, T/C","second compound 0.1 µM, first compound 0.0949 µM",59.9%
same,"viability, T/C","second compound 0.1 µM, first compound 0.3 µM",58.5%
same,"viability, T/C","second compound 0.1 µM, first compound 0.949 µM",55.7%
same,"viability, T/C","second compound 0.1 µM, first compound 3 µM",54.5%
same,"viability, T/C","second compound 0.316 µM, first compound 0.00949 µM",79.4%
same,"viability, T/C","second compound 0.316 µM, first compound 0.03 µM",71.2%
same,"viability, T/C","second compound 0.316 µM, first compound 0.0949 µM",70.3%
same,"viability, T/C","second compound 0.316 µM, first compound 0.3 µM",67.5%
same,"viability, T/C","second compound 0.316 µM, first compound 0.949 µM",59.6%
same,"viability, T/C","second compound 0.316 µM, first compound 3 µM",57.5%
same,"viability, T/C","second compound 1 µM, first compound 0.00949 µM",82%
same,"viability, T/C","second compound 1 µM, first compound 0.03 µM",69.3%
same,"viability, T/C","second compound 1 µM, first compound 0.0949 µM",68.6%
same,"viability, T/C","second compound 1 µM, first compound 0.3 µM",62.9%
same,"viability, T/C","second compound 1 µM, first compound 0.949 µM",57.6%
same,"viability, T/C","second compound 1 µM, first compound 3 µM",57.2%
same,"viability, T/C","second compound 3.16 µM, first compound 0.00949 µM",72.5%
same,"viability, T/C","second compound 3.16 µM, first compound 0.03 µM",69.6%
same,"viability, T/C","second compound 3.16 µM, first compound 0.0949 µM",63.5%
same,"viability, T/C","second compound 3.16 µM, first compound 0.3 µM",60.7%
same,"viability, T/C","second compound 3.16 µM, first compound 0.949 µM",52.5%
same,"viability, T/C","second compound 3.16 µM, first compound 3 µM",49.2%
same,"viability, T/C","second compound 10 µM, first compound 0.00949 µM",64.3%
same,"viability, T/C","second compound 10 µM, first compound 0.03 µM",66.8%
same,"viability, T/C","second compound 10 µM, first compound 0.0949 µM",61.5%
same,"viability, T/C","second compound 10 µM, first compound 0.3 µM",63.4%
same,"viability, T/C","second compound 10 µM, first compound 0.949 µM",48.8%
same,"viability, T/C","second compound 10 µM, first compound 3 µM",45.3%
Cn1ncnc1C1c2n[nH]c(=O)c3cc(F)cc(c23)NC1c1ccc(F)cc1 (configuration not stated),"viability, T/C",compound 0.000316 µM,98.4% and 110%
same,"viability, T/C",compound 0.001 µM,99.4% and 107%
same,"viability, T/C",compound 0.00316 µM,97.5% and 102%
same,"viability, T/C",compound 0.01 µM,106% and 103%
same,"viability, T/C",compound 0.0316 µM,95% and 99%
same,"viability, T/C",compound 0.1 µM,101% and 94.5%
same,IC50,curve of compound,> 100 nM
CC[C@@]1(O)C(=O)OCc2c1cc1n(c2=O)Cc2cc3c(CN(C)C)c(O)ccc3nc2-1 + NC1CCC(NC2CC2c2ccccc2)CC1,IC50,[1],39.6 nM
same,IC50,[2],47.3 nM
same,IC50,[3],38.4 nM
same,IC50,[4],36.3 nM
same,IC50,[5],29.3 nM
same,"viability, T/C","second compound 0.1 µM, first compound 0.000316 µM",82.3%
same,"viability, T/C","second compound 0.1 µM, first compound 0.001 µM",82.9%
same,"viability, T/C","second compound 0.1 µM, first compound 0.00316 µM",71.7%
same,"viability, T/C","second compound 0.1 µM, first compound 0.01 µM",61.2%
same,"viability, T/C","second compound 0.1 µM, first compound 0.0316 µM",57.5%
same,"viability, T/C","second compound 0.1 µM, first compound 0.1 µM",35.7%
same,"viability, T/C","second compound 0.316 µM, first compound 0.000316 µM",96.6%
same,"viability, T/C","second compound 0.316 µM, first compound 0.001 µM",88.2%
same,"viability, T/C","second compound 0.316 µM, first compound 0.00316 µM",81.8%
same,"viability, T/C","second compound 0.316 µM, first compound 0.01 µM",68%
same,"viability, T/C","second compound 0.316 µM, first compound 0.0316 µM",59.1%
same,"viability, T/C","second compound 0.316 µM, first compound 0.1 µM",37.4%
same,"viability, T/C","second compound 1 µM, first compound 0.000316 µM",85.3%
same,"viability, T/C","second compound 1 µM, first compound 0.001 µM",82.3%
same,"viability, T/C","second compound 1 µM, first compound 0.00316 µM",78.8%
same,"viability, T/C","second compound 1 µM, first compound 0.01 µM",62.8%
same,"viability, T/C","second compound 1 µM, first compound 0.0316 µM",56.6%
same,"viability, T/C","second compound 1 µM, first compound 0.1 µM",32.2%
same,"viability, T/C","second compound 3.16 µM, first compound 0.000316 µM",78.7%
same,"viability, T/C","second compound 3.16 µM, first compound 0.001 µM",81.5%
same,"viability, T/C","second compound 3.16 µM, first compound 0.00316 µM",73.1%
same,"viability, T/C","second compound 3.16 µM, first compound 0.01 µM",64.8%
same,"viability, T/C","second compound 3.16 µM, first compound 0.0316 µM",53.7%
same,"viability, T/C","second compound 3.16 µM, first compound 0.1 µM",30.6%
same,"viability, T/C","second compound 10 µM, first compound 0.000316 µM",76.9%
same,"viability, T/C","second compound 10 µM, first compound 0.001 µM",79%
same,"viability, T/C","second compound 10 µM, first compound 0.00316 µM",69.8%
same,"viability, T/C","second compound 10 µM, first compound 0.01 µM",61.9%
same,"viability, T/C","second compound 10 µM, first compound 0.0316 µM",50.1%
same,"viability, T/C","second compound 10 µM, first compound 0.1 µM",28%
